pEC50: −log10 of the molar value. In brackets after ≈: the same amount, converted by molar mass.
Legend:
[1] = Assessment of solubility (HT solubility, pION, UV); assay type: physicochemical; details: incubated 16-19 hours, 1.0% DMSO, 100 uM; for solubility kinetic: pH 4.5 buffer (pION system solution), pH 4.5, aqueous buffer, kinetic from dmso stock, pH 4.5 buffer, read-out: Sol pH 4.5; for Sol pH 7.4: pH 7.4 buffer
Experimental: Solubility is measured by the following method.
DMSO stock samples at 10 mM conc are prepared. […] The samples are pierced and 100 ul of thawed samples are transferred into the PCR plate for analysis. Each sample is run in duplicate at each pH (pH 4.5 and 7.4). Up to 95 samples can be run in replicate at 2 pH's+1 DMSO (blank).
2. Preparation of pH 4.5 and 7.4 buffers:
pH 4.5 buffer: To 12.5 of system solution (pION) qs to 500 mL of distilled water (pH 2.85-2.90); adjust the pH to pH 4.5 with 0.5 N NaOH.
pH 7.4 buffer: To 12.5 of system solution (pION) qs to 500 mL of distilled water (pH 2.85-2.90); adjust the pH to pH 7.4 with 0.5N NaOH.
Preparation of UV blank plate:
75 ul of buffer (pH 7.4 or pH 4.5) is added to UV plate followed by addition of […] of N-propanol. The solution is mixed and the blank spectrum is read using spectrophotometer.
Preparation of Reference UV plate:
10 ul of each stock sample (including DMSO control) is added to 190 ul of N-propanol to prepare the reference stock plate. Reference stock samples are mixed and 5 ul of each stock sample is added to UV blank plate after it is read spectrophotometrically. The reference stock sample is mixed with blank solution in UV plate and the reference spectrum is read using UV spectrophotometer.
Preparation of sample for incubation:
Solubility at pH 7.4: 6 ul of each stock sample (including DMSO control) is added to the storage plate containing 600 ul of pH 7.4 buffer, mixed and incubated for 16-19 hours. The plate is sealed well during the incubation process. The DMSO content in the sample is 1.0%. The concn in deep well plates is 100 uM
6 ul of each stock sample (including DMSO control) is added to the deep well plate containing 600 ul of pH 4.5 buffer, mixed and incubated for 16-19 hours. The plate is sealed well during the incubation process. The DMSO content in the sample is 1.0%. The concn in deep well plates is 100 uM
Preparation of sample UV plate:
At the end of the incubation period, 100 uL of sample from the storage plate is vacuum filtered using a filter plate. This step wets the filters and the filtrate is discarded. Another 200 ul of the sample from the deep well plate is vacuum filtered using the same filter block but a clean filter plate. 75 ul of the filtrate from the filter plate is transferred to a UV sample plate. 75 ul of N-propanol is added to this UV plate. The solution is mixed and the spectrum is read using the UV spectrophotometer.
The spectra collected for blank, reference and sample from 250-498 nm is analyzed using pION software. If the sample precipitates out, the solubility is reported as XX μg/ml. If there is no precipitation and the sample is soluble, solubility is reported as […] (YY being the initial concentration of the compound in the sample).

[2] = molecular target: T1, Recombinant human soluble guanylate cyclase (sGC) (Homo sapiens, UniProt Q02153); test: Molecular assay: activation of heme-free sGC, cGMP detection (CisBio kit); assay type: biochemical; details: 300 pM heme-free sGC, 37° C., 60 minutes, cGMP formation
T1 construct: histidine tag (C); made in house; host or cells: Sf9 insect cells (baculovirus coinfection)
T1 sequence (Q02108 whole entry partner): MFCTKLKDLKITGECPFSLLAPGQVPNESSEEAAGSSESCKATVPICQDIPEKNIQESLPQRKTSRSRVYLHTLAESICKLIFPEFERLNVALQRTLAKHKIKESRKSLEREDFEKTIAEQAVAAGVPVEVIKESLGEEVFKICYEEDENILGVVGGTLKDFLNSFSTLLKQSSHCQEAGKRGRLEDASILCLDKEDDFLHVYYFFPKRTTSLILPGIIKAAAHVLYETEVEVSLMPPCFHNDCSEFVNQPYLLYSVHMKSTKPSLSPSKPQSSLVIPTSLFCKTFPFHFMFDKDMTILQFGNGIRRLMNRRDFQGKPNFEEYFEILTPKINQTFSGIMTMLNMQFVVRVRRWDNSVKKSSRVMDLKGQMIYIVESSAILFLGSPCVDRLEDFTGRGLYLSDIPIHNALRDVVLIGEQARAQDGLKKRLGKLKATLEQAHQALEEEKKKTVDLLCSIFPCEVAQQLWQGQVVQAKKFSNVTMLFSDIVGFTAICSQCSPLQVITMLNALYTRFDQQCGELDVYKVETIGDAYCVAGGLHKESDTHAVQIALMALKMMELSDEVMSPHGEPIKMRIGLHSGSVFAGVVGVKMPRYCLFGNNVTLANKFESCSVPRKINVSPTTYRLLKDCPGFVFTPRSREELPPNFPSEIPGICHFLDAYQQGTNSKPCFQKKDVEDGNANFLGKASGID
T1 sequence (Q02153 whole entry): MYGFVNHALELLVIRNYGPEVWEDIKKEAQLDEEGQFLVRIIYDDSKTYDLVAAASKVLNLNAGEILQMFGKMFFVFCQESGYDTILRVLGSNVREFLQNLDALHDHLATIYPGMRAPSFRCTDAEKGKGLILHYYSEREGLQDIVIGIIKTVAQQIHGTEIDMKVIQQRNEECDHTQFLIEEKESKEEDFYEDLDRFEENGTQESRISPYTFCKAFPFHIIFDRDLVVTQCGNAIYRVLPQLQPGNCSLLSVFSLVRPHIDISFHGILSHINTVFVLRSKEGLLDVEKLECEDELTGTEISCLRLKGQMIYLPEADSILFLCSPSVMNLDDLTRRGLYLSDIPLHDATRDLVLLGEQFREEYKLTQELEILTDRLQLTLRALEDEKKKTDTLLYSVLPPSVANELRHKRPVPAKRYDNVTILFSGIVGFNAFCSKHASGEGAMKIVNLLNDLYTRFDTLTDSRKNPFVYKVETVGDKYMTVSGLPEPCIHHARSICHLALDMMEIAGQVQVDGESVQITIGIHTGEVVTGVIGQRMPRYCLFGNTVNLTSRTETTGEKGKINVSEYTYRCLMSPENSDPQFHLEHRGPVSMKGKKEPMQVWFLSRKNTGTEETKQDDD
Experimental: The compounds of the invention may be evaluated in the following molecular assay:
Recombinant human soluble guanylate cyclase (sGC) is purified from Sf9 insect cells coinfected with baculoviruses expressing the alpha 1 or beta 1 subunit of sGC, both with a C-terminal histidine tag. Heme-free sGC is prepared by treating cell lysate with a final concentration of 0.5% Tween 20 prior to purification on a nickel affinity column.
sGC catalyzes the conversion of guanosine-5′-triphosphate (GTP) to cyclic guanosine monophosphate (cGMP). The activity of sGC is measured in vitro using the commercially available CisBio cGMP detection kit (catalog #62GM2PEB) in a 384 well format. In brief, 300 pM heme-free sGC is incubated in reaction buffer (50 mM MOPS pH 6.8, 0.2 N KOH, 50 mM NaCl, 2 mM MgCl2, 0.1% BSA, 1.25 mM IBMX, 0.25 mM TCEP, 50 nM GTP) in the presence or absence of dilutions of test compounds diluted in DMSO (final concentration of 1%) in a volume of 10 microL at 37° C. for 60 minutes. Undiluted reaction products or an 80-fold dilution of reaction products (10 microL of either) prepared in reaction buffer containing 0.2 mM TCEP and 10 mM EDTA is mixed with 5 microL of d2-cGMP plus 5 microL of Eu^3+cryptate-labeled anti-cGMP, each diluted in buffer containing 0.1 M KPO4 pH 7.5, 0.4 M KF, 20 mM EDTA, 0.2% BSA. After a one hour incubation at room temperature in the dark, the mixtures are quantified on an EnVision plate reader (PerkinElmer) according to manufacturer instructions (laser excitation 337 nm, emission 620 and 665 nm). The ratio at each compound concentration is converted to nM cGMP using the linear portion of a calibration curve. Log compound concentration is plotted against combined undiluted and diluted nM cGMP values to determine the EC50 for each curve.
Representative compounds of the present invention were tested for activity in the above assay. Preferred compounds have an IC50<5,000 nM and more preferred compounds have an IC50<100 nM in this assay.

SMILES	solubility kinetic [1]	Sol pH 7.4 [1]	pEC50 [2]
Cc1ccc(OCc2ccc3c(c2)CCN(CCC2CCOCC2)C3)c(-c2cccc(-n3ncc(C(=O)O)c3C(F)(F)F)n2)c1 [Compound 25]	> 62 µg/mL	>62 μg/mL	7.72
Cc1ccc(OCc2ccc3c(c2)CCN(CC2CCCOC2)C3)c(-c2cccc(-n3ncc(C(=O)O)c3C(F)(F)F)n2)c1 (stereo not drawn) [Compound 26]	> 60 µg/mL	>60 μg/mL	8.52
Cc1ccc(OCc2ccc3c(c2)CCN(Cc2ccccc2)C3)c(-c2cccc(-n3ncc(C(=O)O)c3C(F)(F)F)n2)c1 [Compound 27]	18.2 µg/mL (≈ 30.4 µM)	25.6 μg/mL	8.22
Cc1ccc(OCc2ccc3c(c2)CCN(C(C)c2cnccn2)C3)c(-c2cccc(-n3ncc(C(=O)O)c3C(F)(F)F)n2)c1 (stereo not drawn) [Compound 28]	> 61 µg/mL	>61 μg/mL	8.05
Cc1ccc(OCc2ccc3c(c2)CCN(Cc2nc(C)cs2)C3)c(-c2cccc(-n3ncc(C(=O)O)c3C(F)(F)F)n2)c1 [Compound 29]	12.9 µg/mL (≈ 20.8 µM)	>61 μg/mL	9.30
Cc1ccc(OCc2ccc3c(c2)CCN(Cc2cncn2C)C3)c(-c2cccc(-n3ncc(C(=O)O)c3C(F)(F)F)n2)c1 [Compound 30]	> 60 µg/mL	>60 μg/mL	7.15
Cc1ccc(OCc2ccc3c(c2)CCN(Cc2cc(C)on2)C3)c(-c2cccc(-n3ncc(C(=O)O)c3C(F)(F)F)n2)c1 [Compound 31]	22 µg/mL (≈ 36.4 µM)	>60 μg/mL	8.70
CCn1cc(CN2CCc3cc(COc4ccc(C)cc4-c4cccc(-n5ncc(C(=O)O)c5C(F)(F)F)n4)ccc3C2)cn1 [Compound 32]	10.8 µg/mL (≈ 17.5 µM)	15.9 μg/mL	7.92
Cc1ccc(OCc2ccc3c(c2)CCN(C2CCC(C(F)(F)F)CC2)C3)c(-c2cccc(-n3ncc(C(=O)O)c3C(F)(F)F)n2)c1 (stereo not drawn) [Compound 33]	6.3 µg/mL (≈ 9.57 µM)	4.6 μg/mL	8.22
Cc1ccc(OCc2ccc3c(c2)CCN(C2CCOCC2)C3)c(-c2cccc(-n3ncc(C(=O)O)c3C(F)(F)F)n2)c1 [Compound 34]	41.5 µg/mL (≈ 70 µM)	41.8 μg/mL	8.10
Cc1ccc(OCc2ccc3c(c2)CCN(C2CCOC2)C3)c(-c2cccc(-n3ncc(C(=O)O)c3C(F)(F)F)n2)c1 (stereo not drawn) [Compound 35, 1-(6-{5-methyl-2-[2-(tetrahydrofuran-3-yl)-1,2,3,4-tetrahydroisoquinolin-6-ylmethoxy]phenyl}pyridin-2-yl)-5-trifluoromethyl-1H-pyrazole-4-carboxylic acid]	42.3 µg/mL (≈ 73.1 µM)	43.0 μg/mL	8.15
Cc1ccc(OCc2ccc3c(c2)CCN(C)C3)c(-c2cccc(-c3sc(C(=O)O)cc3C)n2)c1 [Compound 37, 4-methyl-5-{6-[5-methyl-2-(2-methyl-1,2,3,4-tetrahydro-isoquinolin-6-ylmethoxy)phenyl]pyridin-2-yl}-thiophene-2-carboxylic acid]	14.1 µg/mL (≈ 29.1 µM)	27.4 μg/mL	6.70
Cc1ccc(OCc2ccc3c(c2C)CCN(C)C3)c(-c2cccc(-n3ncc(C(=O)O)c3C(F)(F)F)n2)c1 [Compound 38]	15.5 µg/mL (≈ 28.9 µM)	18.4 μg/mL	7.34
Cc1ccc(OCc2ccc3c(c2)CCN(C)CC3)c(-c2cccc(-n3ncc(C(=O)O)c3C(F)(F)F)n2)c1 [Compound 40]	16.3 µg/mL (≈ 30.4 µM)	18.5 μg/mL	7.49
Cc1ccc(OCc2ccc3c(c2)CCN(C)C3)c(-c2cccc(-c3ncc(C(=O)O)n3C)n2)c1 [Compound 41]	> 58 µg/mL	11.8 μg/mL	5.34

Next, values leading:

solubility kinetic [1]	Sol pH 7.4 [1]	pEC50 [2]	SMILES
15.4 µg/mL (≈ 32.9 µM)	19.6 μg/mL	5.77	Cc1ccc(OCc2ccc3c(c2)CCN(C)C3)c(-c2cccc(-n3ncc(C(=O)O)c3C)n2)c1 [Compound 43, 5-methyl-1-{6-[5-methyl-2-(2-methyl-1,2,3,4-tetrahydro-isoquinolin-6-ylmethoxy)phenyl]pyridin-2-yl}-1H-pyrazole-4-carboxylic acid]
0.1 µg/mL (≈ 0.206 µM)	5.7 μg/mL	5.70	Cc1ccc(OCc2ccc3c(c2)CCN(C)C3)c(-c2cccc(-c3csc(C(=O)O)c3C)n2)c1 [Compound 46, 3-methyl-4-{6-[5-methyl-2-(2-methyl1,2,3,4-tetrahydroisoquinolin-6-ylmethoxy)phenyl]pyridin-2-yl}thiophene-2-carboxylic acid]
5.1 µg/mL (≈ 10.6 µM)	1.9 μg/mL	6.19	Cc1ccc(OCc2ccc3c(c2C)CCN(C)C3)c(-c2cccc(-c3ncc(C(=O)O)n3C)n2)c1 [Compound 48, 2-{6-[2-(2,5-dimethyl-1,2,3,4-tetrahydroisoquinolin-6-ylmethoxy)-5-methylphenyl]pyridin-2-yl}-3-methyl-3H-imidazole-4-carboxylic acid]
13.7 µg/mL (≈ 23.5 µM)	13.4 μg/mL	6.42	Cc1ccc(OCc2ccc3c(c2)CCN(Cc2nc(C)cs2)C3)c(-c2cccc(-c3csc(C(=O)O)c3C)n2)c1 [Compound 50]
44.7 µg/mL (≈ 80.6 µM)	35.9 μg/mL	6.47	Cc1ccc(OCc2ccc3c(c2)CCN(CC2CCOC2)C3)c(-c2cccc(-c3csc(C(=O)O)c3C)n2)c1 (stereo not drawn) [Compound 51]
> 63 µg/mL	42.1 μg/mL	6.26	Cc1ccc(OCc2ccc3c(c2)CN(C)CC3)c(-c2cccc(-n3ncc(C(=O)O)c3C(F)(F)F)n2)c1 [Compound 52]
40.1 µg/mL (≈ 72.3 µM)	51.4 μg/mL	7.33	Cc1ccc(OCc2ccc3c(c2C)CCN(C2CCOC2)C3)c(-c2cccc(-c3csc(C(=O)O)c3C)n2)c1 (stereo not drawn) [Compound 53]
> 76 µg/mL	32.6 μg/mL	6.78	Cc1ccc(OCc2ccc3c(c2C)CCN(C2CCOC2)C3)c(-c2cccc(-c3ncc(C(=O)O)n3C)n2)c1 (stereo not drawn) [Compound 54]
> 63 µg/mL	>63 μg/mL	7.36	Cc1cccc(-c2cccc(-n3cnc(C(=O)O)c3C)n2)c1OCc1ccc2c(c1C)CCN(C1CCOC1)C2 (stereo not drawn) [Compound 55]
